The results in this text go back to ChEMBL document CHEMBL1127402, “Orally active non-peptide fibrinogen receptor (GpIIb/IIIa) antagonists: identification of 4-[4-[4-(aminoiminomethyl)phenyl]-1-piperazinyl]-1-piperidineacetic acid as a long-acting, broad-spectrum antithrombotic agent” (J Med Chem, 1994).

Molecules are shown by their SMILES.

By IC50 is commonly meant the concentration at which inhibition is half-maximal. Low readings indicate inhibition by little substance, high ones a need for much substance.

The species entered for this experiment is Homo sapiens. The experiment is described as follows: Inhibition of 10 uM ADP induced aggregation in human gel filtered platelets in the presence fibrinogen and aspirin. Format: functional.

In turn, `CCN(CC)CCO[C@H]1CC[C@H]([C@H]2CC[C@](O)(CC(=O)O)CC2)CC1` displayed an IC50 of 54000 nM.

Turning to `N=C(N)c1ccc(N2CCN(C3CCN(CC(=O)O)CC3)CC2)cc1`, the 50% inhibitory concentration (IC50) amounted to 37 nM. This IC50 lies about 1500-fold lower than the previous one.

Compound `N/C(=N\CC(F)(F)F)c1ccc(-c2ccc(C3=CCC(O)(CC(=O)O)CC3)cc2)cc1` (centres undefined) registered an IC50 of 210 nM. Against the preceding compound, the IC50 is about 5.7-fold higher. With `N=C(N)c1ccc(-c2ccc(N3CC[N+](CC(=O)O)(Cc4ccccc4)CC3)cc2)cc1` the figure was 31 nM.
